# Source: patent US20090124587A1, “METHODS FOR TREATING CANCER USING 17alpha-HYDROXYLASE/C17,20-LYASE INHIBITORS” (priority 2007, published 2009)
# Like-named read-outs stand apart in the source and are kept apart here.
# Test: Pharmacokinetic study of abiraterone in hormone refractory prostate cancer patients, oral doses 250-2000 mg/day, fasted
# Assay type: in vivo, human
# Conditions: mean, fasted, plasma; for AUC(0-t) / Cmax / Tmax / AUC(0-inf): male, human; for AUC(0-inf): read-out: AUCINF_obs
# Method: A group of 15 subjects was divided into five groups. Members of each group were orally administered doses of 250 mg/day, 500 mg/day, 750 mg/day, 1000 mg/day or 2000 mg/day once a day. Before administration the subjects had fasted. PK blood samples were measured at 1, 2, 4, 6, 8, 24, and 72 hours post dose.
# To measure the amount of abiraterone and abiraterone acetate in the samples, these compounds were extracted from 100 uL human plasma using solid phase extraction (SPE) with cation mixed-mode polymer cartridges. Extracts were evaporated to dryness before reconstitution and analysis. Chromatography was carried out using a Luna™ C5 column (5 μm, 50 mm×2.1 mm id) with a gradient mobile phase consisting of 10 mM ammonium acetate and 2% propan-2-ol in acetonitrile. The flow rate was 0.2 mL/min and the run time 10.5 minutes. Abiraterone and abiraterone acetate were ionized using the electrospray interface in positive ion mode. Detection of analytes was via tandem mass spectrometry (MS/MS) in the multiple reaction monitoring (MRM) mode.
# PK modeling was conducted using a non-compartmental model, extra vascular input for plasma with WinNonLin Software®. Pharmacokinetic parameters estimated in the model include: […]
# [1] = 250 mg/day abiraterone acetate oral
# [2] = 500 mg/day abiraterone acetate oral
# [3] = 750 mg/day abiraterone acetate oral
# [4] = 1000 mg/day abiraterone acetate oral
# [5] = 2000 mg/day abiraterone acetate oral
structure (smiles),measurement,setting,value
C[C@]12CC[C@H](O)CC1=CC[C@@H]1[C@@H]2CC[C@]2(C)C(c3cccnc3)=CC[C@@H]12 [Abiraterone],AUC(0-t),[1],1.25 µM·h
same,Cmax,[1],219 nM
same,Tmax,[1],2.05 h
same,AUC(0-inf),[1],1.37 µM·h
same,AUC(0-t),[2],1.33 µM·h
same,Cmax,[2],284 nM
same,Tmax,[2],2.59 h
same,AUC(0-inf),[2],1.45 µM·h
same,AUC(0-t),[3],4.29 µM·h
same,Cmax,[3],1030 nM
same,Tmax,[3],1.71 h
same,AUC(0-inf),[3],4.54 µM·h
same,AUC(0-t),[4],5.03 µM·h
same,Cmax,[4],659 nM
same,Tmax,[4],3.09 h
same,AUC(0-inf),[4],5.32 µM·h
same,AUC(0-t),[5],4.75 µM·h
same,Cmax,[5],531 nM
same,Tmax,[5],2.67 h
same,AUC(0-inf),[5],4.98 µM·h
same,Cl_F_obs,[1],567.2 L/h
same,HL_Lambda_z,[1],11.6 h
same,Vz_F_obs,[1],10772.0 L
same,Cl_F_obs,[2],1347.2 L/h
same,HL_Lambda_z,[2],9.5 h
same,Vz_F_obs,[2],14032.5 L
same,Cl_F_obs,[3],494 L/h
same,HL_Lambda_z,[3],10.8 h
same,Vz_F_obs,[3],8340 L
same,Cl_F_obs,[4],861.6 L/h
same,HL_Lambda_z,[4],9.9 h
same,Vz_F_obs,[4],10125.5 L
same,Cl_F_obs,[5],1280.3 L/h
same,HL_Lambda_z,[5],12.0 h
same,Vz_F_obs,[5],21598.8 L
